US8735406B2, “8-oxodihydropurine derivative” (Dainippon Sumitomo Pharma Co., Ltd., priority 2009, dated 2014)
Where two headings read alike, the source gives them in different places.

Molecular target: T1, FAAH (Rattus norvegicus, UniProt P97612)
T1 construct: Preparation of Rat Brain Membranes Preparations (FAAH Enzyme Solution); from tissue; host or cells: rat cerebrum (brain membrane preparation)
T1 sequence (P97612 1-579): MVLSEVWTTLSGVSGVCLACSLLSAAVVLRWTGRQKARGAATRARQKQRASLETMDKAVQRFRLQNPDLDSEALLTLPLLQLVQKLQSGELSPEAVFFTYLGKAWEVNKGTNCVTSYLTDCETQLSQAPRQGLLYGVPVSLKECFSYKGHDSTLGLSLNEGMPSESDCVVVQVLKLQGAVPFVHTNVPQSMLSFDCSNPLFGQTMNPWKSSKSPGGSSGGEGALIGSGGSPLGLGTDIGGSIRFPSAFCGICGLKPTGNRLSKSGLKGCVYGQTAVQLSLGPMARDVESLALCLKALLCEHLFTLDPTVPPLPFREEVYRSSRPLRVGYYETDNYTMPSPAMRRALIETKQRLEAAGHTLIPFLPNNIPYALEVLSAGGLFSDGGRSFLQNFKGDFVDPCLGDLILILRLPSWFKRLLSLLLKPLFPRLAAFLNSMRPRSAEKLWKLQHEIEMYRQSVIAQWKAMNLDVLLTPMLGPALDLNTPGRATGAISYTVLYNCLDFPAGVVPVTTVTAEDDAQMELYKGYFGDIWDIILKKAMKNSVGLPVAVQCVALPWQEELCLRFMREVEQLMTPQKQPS
Experiment: Determination of FAAH inhibitory activity in rat (rat brain membrane preparations, [3H]-anandamide hydrolysis)
Type: biochemical
Conditions: for IC50: read-out: FAAH Inhibition IC50
Method in brief: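 Rat cerebrum membranes (100 μg/mL protein) preincubated 10 min at 37 °C with compound (1% DMSO) in pH 7.6 Tris buffer with 1.5% BSA. Substrate 2 nM [3H]-anandamide plus 2 μM anandamide added for 10 min at 37 °C. [3H]-ethanolamine in the aqueous phase after chloroform/methanol extraction was scintillation counted; IC50 over 0.1 nM–1 μM.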

[1] = rat brain membrane preparations, 100 nM test substance, read-out: FAAH Inhibition, Inhibition Rate at 100 nM
[2] = rat brain membrane preparations, test substance 0.1 nM to 1 μM
[3] = at 100 nM, rat brain membrane preparations, read-out: FAAH Inhibition Inhibition Rate at 100 nM
[4] = rat brain membrane preparations

inhibition at 0.1 µM [1] [%] | IC50 [2] [nM] | inhibition at 0.1 µM [3] [%] | IC50 [4] [nM] | SMILES | inhibition at 0.1 µM (read-out: FAAH Inhibition, Inhibition Rate at 100 nM) [%]
99 | 7 |  |  | Cn1c(=O)n(C(=O)N2CCCC2)c2cnc(-c3ccc(Cl)cc3)nc21 [Example 18] | 
40 | > 100 |  |  | COc1ccc(/C=C/c2ncc3c(n2)n(C(=O)N2CCCC2)c(=O)n3C)cc1 [compound 242] | 
99 | 10 |  |  | CCc1ccc(CCc2ncc3c(n2)n(C(=O)N2CCC2)c(=O)n3C)cc1 [compound 561] | 
91 | 51 |  |  | COc1ccc(-c2ncc3c(n2)n(C(=O)N2CCCC2)c(=O)n3C)cc1 [Example 231, 2-(4-Methoxyphenyl)-7-methyl-9-(pyrrolidin-1-ylcarbonyl)-7,9-dihydro-8H-purine-8-one] | 
98 | 33 |  |  | Cn1c(=O)n(C(=O)N2CCCC2)c2cnc(Cc3ccccc3F)nc21 [Example 254, 2-(2-Fluorobenzyl)-9-methyl-7-(pyrrolidin-1-ylcarbonyl)-7,9-dihydro-8H-purine-8-one] | 
89 | 47 |  |  | Cn1c(=O)n(C(=O)N2CCCC2)c2nc(Cc3cc(F)ccc3F)ncc21 [Example 297, 2-(2,5-Difluorobenzyl)-7-methyl-9-(pyrrolidin-1-ylcarbonyl)-7,9-dihydro-8H-purine-8-one] | 
80 | 26 |  |  | Cc1ccc(OCc2ncc3c(n2)n(C(=O)N2CCC2)c(=O)n3C)cc1 [Example 424] | 
85 | 12 |  |  | Cn1c(=O)n(C(=O)N2CCC2)c2cnc(Cc3ccccc3F)nc21 [compound 374] | 
99 | 8 |  |  | Cn1c(=O)n(C(=O)N2CCCC2)c2nc(CCc3ccc(C(F)(F)F)cc3)ncc21 [Example 312, 7-methyl-9-(pyrrolidin-1-ylcarbonyl)-2-{2-[4-(trifluoromethyl)phenyl]ethyl}-7,9-dihydro-8H-purine-8-one] | 
94 | 10 |  |  | Cn1c(=O)n(C(=O)N2CCC2)c2nc(-c3cccc(OC(F)(F)F)c3)ncc21 [compound 350] | 
99 | 9 |  |  | Cn1c(=O)n(C(=O)N2CCCC2)c2cnc(-c3ccc(F)cc3F)nc21 [compound 188] | 
100 | 6 |  |  | Cn1c(=O)n(C(=O)N2CCCC2)c2cnc(-c3ccc(F)c(F)c3)nc21 [compound 190] | 
66 | 33 |  |  | Cc1cccc(OCc2ncc3c(n2)n(C(=O)N2CCC2)c(=O)n3C)c1 [Example 417] | 
100 | 5 |  |  | Cn1c(=O)n(C(=O)N2CCCC2)c2cnc(-c3ccncc3)nc21 [Example 213, 9-Methyl-2-(pyridin-4-yl)-7-(pyrrolidin-1-ylcarbonyl)-7,9-dihydro-8H-purine-8-one] | 

The remaining lines, values behind:

SMILES | inhibition at 0.1 µM [1] [%] | IC50 [2] [nM] | inhibition at 0.1 µM [3] [%] | IC50 [4] [nM] | inhibition at 0.1 µM (read-out: FAAH Inhibition, Inhibition Rate at 100 nM) [%]
CN(C)C(=O)n1c(=O)n(C)c2cnc(-c3ccc(C(F)(F)F)cc3Cl)nc21 [Example 339, 2-[2-Chloro-4-(trifluoromethyl)phenyl]-N,N,7-trimethyl-8-oxo-7,8-dihydro-9H-purine-9-carboxamide] | 80 | 7 |  |  | 
CCN(C)C(=O)n1c(=O)n(C)c2nc(-c3cccnc3)ncc21 [Example 219, N-Ethyl-N,9-dimethyl-8-oxo-2-(pyridin-3-yl)-8,9-dihydro-7H-purine-7-carboxamide] | 96 | 9 |  |  | 
COc1cccc(N2CCN(C(=O)n3c(=O)n(C)c4nc(-c5ccccc5)ncc43)CC2)c1 [Example 121, 7-{[4-(3-Methoxyphenyl)piperazin-1-yl]carbonyl}-9-methyl-2-phenyl-7,9-dihydro-8H-purine-8-one] | 98 | 42 |  |  | 
CN(C)C(=O)n1c(=O)n(C)c2cnc(CCc3c(F)cccc3F)nc21 [compound 551] | 40 | 104 |  |  | 
CCCCOc1cccc(-c2ncc3c(n2)n(C(=O)N2CCC2)c(=O)n3C)c1 [compound 348] | 90 | 28 |  |  | 
COc1cccc(-c2ncc3c(n2)n(C)c(=O)n3C(=O)N2CCN(Cc3ccc(F)cc3)CC2)c1 [Example 84, 7-{[4-(4-Fluorobenzyl)piperazin-1-yl]carbonyl}-2-(3-methoxyphenyl)-9-methyl-7,9-dihydro-8H-purine-8-one] |  | 13 |  |  | 98
Cn1c(=O)n(C(=O)N2CCC2)c2nc(CCCC3CCCCC3)ncc21 [Example 619] |  |  | 103 | 9 | 
CCN(C)C(=O)n1c(=O)n(C)c2nc(Cc3ccc(OC)cc3)ncc21 [Example 280, N-Ethyl-2-(4-methoxybenzyl)-N,9-dimethyl-8-oxo-8,9-dihydro-7H-purine-7-carboxamide] | 105 | 11 |  |  | 
COCCc1ncc2c(n1)n(C)c(=O)n2C(=O)N1CC(c2ccc(F)cc2)C1 [compound 390] | 120 | 1 |  |  | 
COCc1ncc2c(n1)n(C)c(=O)n2C(=O)N1CC(Oc2ccccc2F)C1 [Example 479, 7-{[3-(2-Fluorophenoxy)azetidin-1-yl]carbonyl}-2-(methoxymethyl)-9-methyl-7,9-dihydro-8H-purine-8-one] | 50 | 101 |  |  | 
COc1ccc(CN(C)C(=O)n2c(=O)n(C)c3nc(-c4cccc(OC)c4)ncc32)cc1 [Example 80, N-(4-Methoxybenzyl)-2-(3-methoxyphenyl)-N,9-dimethyl-8-oxo-8,9-dihydro-7H-purine-7-carboxamide] | 92 | 44 |  |  | 
CN(C)C(=O)n1c(=O)n(C)c2cnc(CCOc3cccc(Cl)c3)nc21 [Example 641, 2-[2-(3-Chlorophenoxy)ethyl]-N,N,7-trimethyl-8-oxo-7,8-dihydro-9H-purine-9-carboxamide] |  |  | 105 | 8 | 
CCN(C)C(=O)n1c(=O)n(C)c2nc(Cc3cccc(OC)c3)ncc21 [Example 277, N-Ethyl-2-(3-methoxybenzyl)-N,9-dimethyl-8-oxo-8,9-dihydro-7H-purine-7-carboxamide] | 96 | 7 |  |  | 
COc1cccc(-c2ncc3c(n2)n(C)c(=O)n3C(=O)N2CCN(CC(F)(F)F)CC2)c1 [Example 99, 2-(3-Methoxyphenyl)-9-methyl-7-{[4-(2,2,2-trifluoroethyl)piperazin-1-yl]carbonyl}-7,9-dihydro-8H-purine-8-one] | 100 | 7 |  |  | 
CN(C)C(=O)n1c(=O)n(C)c2cnc(CCCC3CCCCC3)nc21 [Example 616] |  |  | 99 | 10 | 
Cn1c(=O)n(C(=O)N2CCN(c3ccc(C#N)cc3)CC2)c2cnc(-c3ccccc3)nc21 [Example 132, 4-{4-[(9-Methyl-8-oxo-2-phenyl-8,9-dihydro-7H-purine-7-yl)carbonyl]piperazin-1-yl}benzonitrile] | 99 | 6 |  |  | 
CCOc1ccc(-c2ncc3c(n2)n(C(=O)N2CCC2)c(=O)n3C)cc1 [compound 347] | 72 | 61 |  |  | 
CCCN(C)C(=O)n1c(=O)n(C)c2nc(-c3cccc(OC)c3)ncc21 [Example 107, 2-(3-Methoxyphenyl)-N,9-dimethyl-8-oxo-N-propyl-8,9-dihydro-7H-purine-7-carboxamide] | 101 | 7 |  |  | 
COc1cncc(-c2ncc3c(n2)n(C)c(=O)n3C(=O)N2CCCC2)c1 [compound 208] | 106 | 10 |  |  | 
